The text below walks through data of publication PMC9423655, “Huntington’s disease phenotypes are improved via mTORC1 modulation by small molecule therapy” (PLoS ONE, 2022).

For test [1], the system named is mTORC1 pathway in heart. Description: Chronic 6-week treatment: heart immunoblots. As to conditions: N171-82Q mice, 160 mg/kg daily 6 weeks, 1 hour after dosing. It counts as in vivo. Here is the method: Specific regions of the brain and heart were homogenized using a Next Advance Bullet Blender Storm in Lysis Buffer (Cell lysis buffer: 1% Triton X-100, 50 mM HEPES pH 7.4, 100 mM sodium chloride, 2 mM EDTA, 10 mM Beta-glycerophosphate, 10 mM Sodium pyrophosphate, and 1 protease inhibitor) at 4°C. Lysates were cleared by centrifugation at 13,200 rpm at 4°C for 10 minutes. Equal amounts of total protein from each sample were denatured and, resolved by SDS-PAGE. Membranes were imaged using the LI-COR imaging system. Proteins levels are normalized to tubulin, actin or GAPDH levels and further normalized to vehicle treated mice for each tissue.
Fig 5 Oral dosing with NV-5297 over 6 weeks improves cardiac function and activates the mTORC1 pathway. (A) Representative M-mode echocardiograms from transthoracic echocardiography at 6 weeks and 12 weeks of vehicle and NV-5297 treated N171-82Q males. (B) Heart weight corrected for the animal’s standard length (tibia length) at 12 weeks. (C) Left ventricular measurements obtained by transthoracic echocardiography by deducting the end treatment (12 weeks) from the baseline (6 weeks) measurements. Variation in cardiac output [CO], ejection fraction [EF], fractional shortening [FS], stroke volume (SV) and Heart rate [HR]. (D) Representative immunoblots for normalized phosphorylated S6 (^S240/244pS6), S6, phosphorylated Akt (^S437pAkt), Akt, phosphorylated mTOR (^S2448pmTOR), mTOR, phosphorylated 4E-BP1 (^Thr37/46p4E-BP1), 4E-BP1 and Actin in homogenized heart. (E) Quantification of the immunoblots for homogenized heart isolated 1 hour after oral dosing with NV-5297 (160 mg/kg; n = 14) normalized to loading control levels and further normalized to vehicle (Veh) treated mice (n = 15). Data are presented as mean ± SEM. *P ≤ 0.05, **P ≤ 0.01, ***P ≤ 0.001 (unpaired Kruskal-Wallis test with Dunn’s multiple comparison test [B], unpaired one-tailed Student’s t-tests [C, E pmTOR] with a Welch’s correction [pS6/S6, pmTOR/mTOR] or a Mann-Whitney test [pAkt/Akt, p4E-BP1/4E-BP1]).
(In general: Immunoblotting shows a protein as a band on a membrane.)

The test system of test [2] is N171-82Q HD mice. Put plainly: Isoprenaline cardiac stress: survival, weight, echocardiography, heart weight, cardiomyocyte area, fibrosis. It counts as in vivo, N171-82Q mice. The procedure:
The initial trial consisted in one week of oral dosing in 12 weeks old N171-82Q males. The chronic 6 weeks treatment (Veh n = 15, NV-5297 n = 14) took place from 6 to 12 weeks of age. The cardiac stress took place in animals from 10 to 12 weeks of age (Veh-Sal n = 9, NV-Sal n = 10, Veh-Iso n = 16, NV-Iso n = 11).
Mice were anesthetized with 2% isoflurane and restrained on a stage with electrocardiogram (EKG) sensors. Transthoracic echocardiograms were performed using the Vevo 3100 Imaging System with a linear array MX550D transducer. Images were acquired by an experienced echocardiographer and then analyzed offline using the Vevo LAB analysis software. Parasternal long axis views and short axis views were used to assess left ventricular function. Measurements were performed to evaluate left ventricular dimensions during both systole and diastole of the cardiac cycle. The Vevo LAB left ventricle [LV] analysis tool, LV trace, was used to calculate cardiac output [CO] (heart rate ∙ stroke volume), fractional shortening [FS] (ventricle diameter at the end of the diastole–ventricle diameter at the end of the systole), ejection fraction [EF] (percentage of blood ejected by the left ventricle by heart beat), stroke volume (SV) (blood volume ejected from the left ventricle per beat), heart rate [HR] (bpm), left ventricular mass [LVmass], dimensions and volumes. Both imaging and analysis were performed by an operator blinded to the mice experimental treatment.
Cardiomyocyte area was measured in wheat germ agglutinin-labelled heart sections as previously described. Briefly, sections were cleared and rehydrated through xylene and ethanol, then labelled with WGA conjugated to Alexa Fluor 594 (8 μg/ml, Biotium) per manufacturer’s protocol. Sections were counterstained with Hoechst stain (2 μg/ml, Thermo Scientific). High-power digital images were collected such that the entirety of the left ventricular free wall was represented. A grid was superimposed over each image in ImageJ to randomly select cardiomyocytes sectioned perpendicular to the long axis, and the area of those cells was measured manually. At least 240 cardiomyocytes were measured per section. Cardiomyocyte areas were averaged for each treatment group.
The percent of area occupied by fibrotic tissue was calculated as previously described. Briefly, heart sections were cleared and rehydrated through xylene and ethanol. Sections were counterstained with Weigert’s haematoxylin (Sigma) per manufacturer’s protocol. Collagen was labelled by staining to equilibrium with Picrosirius red (0.1% Direct Red 80, Sigma, in saturated picric acid, Sigma). Bright field and corresponding polarized light digital images were taken such that the entirety of the left ventricular free wall was represented. Image threshold was adjusted to highlight either the entire tissue (bright field) or the fibrotic tissue (polarized) in ImageJ, and percent area occupied by fibrotic tissue was calculated from these images. Large vessels were excluded from the analysis.
Isoprenaline (Sigma) was dissolved in sterile PBS and administered by continuous infusion using implantable mini-osmotic pumps (Alzet) at a dose of 30 mg/kg body mass/day. Pumps were filled and primed in a sterile environment and inserted under 2.5% isoflurane anesthesia into the right dorsal subcutaneous space caudal to the scapulae.
We next tested if daily NV-5297 dosing in HD mice could enable cardiac adaptation to chronic stress. In this experiment, the NV-Sal and Veh-Sal groups have an osmotic pump implant on their back. The presence of this pump makes the echocardiography more challenging, justifying the difference to the baseline groups measurements along with the smaller sample size for this experiment. For this study, we found no significant […] and therefore we focused on the changes within the vehicle-treated groups and within the NV-5297-treated groups. […]

The mark [3] stands for this setting: N171-82Q mice under isoprenaline cardiac stress.

In general, mortality refers to the share of the test organisms that died. With `CC(C)(C[C@H](N)C(=O)O)C(F)(F)F` [NV-5297, (S)-2-amino-5,5,5-trifluoro-4,4-dimethylpentanoic acid], in test [1], the “heart p4E-BP1 level versus controls” value is recorded as “elevated”, the “heart pS6 level versus controls” value is on record as “elevated” and the “heart pmTOR level versus controls” value was “elevated”. Besides, the mortality in test [2] (Iso-stressed N171-82Q mice (isoprenaline 30 mg/kg/day, 14 days), NV-5297 160 mg/kg oral daily) was determined as 45%. In addition, in test [2] (setting [3]), the “body weight over trial duration” value is “maintained their weight”, the “cardiac output from baseline” value is “increase”, the cardiomyocyte area result is “increased” and the “ejection fraction from baseline” value is “increased”. In addition, in test [2] (setting [3]), the “fractional shortening from baseline” value is on record as “increased”, the heart fibrosis entry is reported as “devoid of fibrosis”, the heart mass entry is “elevated” and the “stroke volume from baseline” value is “increased”. Further, the heart rate entry in test [2] (N171-82Q mice under isoprenaline cardiac stress (NV-Iso)) is “maintain a normal heart rate”. In test [2] (N171-82Q mice with saline implant (NV-Sal group), NV-5297 160 mg/kg oral daily), this compound displayed a survival of 100%.
